In assay [1] the target is CDK9/CycT1 (Homo sapiens (Human), UniProt P50750). Description: CDK9/CycT1 kinase assay (TR-FRET, 10 μM ATP). Type of assay: biochemical. The following applies: Method 1a. From the text:
1a. CDK9/CycT1 Kinase Assay:
CDK9/CycT1-inhibitory activity of compounds of the present invention was quantified employing the CDK9/CycT1 TR-FRET assay as described in the following paragraphs:
Recombinant full-length His-tagged human CDK9 and CycT1, expressed in insect cells and purified by Ni-NTA affinity chromatography, were purchased from Invitrogen (Cat. No PV4131). As substrate for the kinase reaction biotinylated peptide biotin-Ttds-YISPLKSPYKISEG (C-terminus in amid form) was used which can be purchased e.g. form the company JERINI Peptide Technologies (Berlin, Germany).
(§1) For the assay 50 nl of a 100 fold concentrated solution of the test compound in DMSO was pipetted into a black low volume 384 well microtiter plate (Greiner Bio-One, Frickenhausen, Germany), 2 μl of a solution of CDK9/CycT1 in aqueous assay buffer [50 mM Tris/HCl pH 8.0, 10 mM MgCl2, 1.0 mM dithiothreitol, 0.1 mM sodium ortho-vanadate, 0.01% (v/v) Nonidet-P40 (Sigma)] were added and the mixture was incubated for 15 min at 22° C. to allow pre-binding of the test compounds to the enzyme before the start of the kinase reaction. Then the kinase reaction was started by the addition of 3 μl of a solution of adenosine-tri-phosphate (ATP, 16.7 μM=>final conc. in the 5 μl assay volume is 10 μM) and substrate (1.67 μM=>final conc. in the 5 μl assay volume is 1 μM) in assay buffer and the resulting mixture was incubated for a reaction time of 25 min at 22° C. The concentration of CDK9/CycT1 was adjusted depending of the activity of the enzyme lot and was chosen appropriate to have the assay in the linear range, typical concentrations were in the range of 1 μg/mL. The reaction was stopped by the addition of 5 μl of a solution of TR-FRET detection reagents (0.2 μM streptavidine-XL665 [Cisbio Bioassays, Codolet, France] and 1 nM anti-RB(pSer807/pSer811)-antibody from BD Pharmingen [#558389] and 1.2 nM LANCE EU-W1024 labeled anti-mouse IgG antibody [Perkin-Elmer, product no. AD0077]) in an aqueous EDTA-solution (100 mM EDTA, 0.2% (w/v) bovine serum albumin in 100 mM HEPES/NaOH pH 7.0).
(§2) The resulting mixture was incubated 1 h at 22° C. to allow the formation of complex between the phosphorylated biotinylated peptide and the detection reagents. Subsequently the amount of phosphorylated substrate was evaluated by measurement of the resonance energy transfer from the Eu-chelate to the streptavidine-XL. Therefore, the fluorescence emissions at 620 nm and 665 nm after excitation at 350 nm was measured in a HTRF reader, e.g. a Rubystar (BMG Labtechnologies, Offenburg, Germany) or a Viewlux (Perkin-Elmer). The ratio of the emissions at 665 nm and at […] was taken as the measure for the amount of phosphorylated substrate. The data were normalised (enzyme reaction without inhibitor=0% inhibition, all other assay components but no enzyme=100% inhibition).

Assay [2] addresses CDK2/CycE (Homo sapiens (Human), UniProt P24941). Description: CDK2/CycE kinase assay (TR-FRET, 10 μM ATP). Type of assay: biochemical. The following applies: Method 2a.
Description: 2a. CDK2/CycE Kinase Assay:
CDK2/CycE-inhibitory activity of compounds of the present invention was quantified employing the CDK2/CycE TR-FRET assay as described in the following paragraphs:
Recombinant fusion proteins of GST and human CDK2 and of GST and human CycE, expressed in insect cells (Sf9) and purified by Glutathion-Sepharose affinity chromatography, were purchased from ProQinase GmbH (Freiburg, Germany). As substrate for the kinase reaction biotinylated peptide biotin-Ttds-YISPLKSPYKISEG (C-terminus in amid form) was used which can be purchased e.g. form the company JERINI Peptide Technologies (Berlin, Germany).
as §1, with “solution of CDK2/CycE in aqueous” for “solution of CDK9/CycT1 in aqueous”, “and substrate (1.25 μM=>final conc.” for “and substrate (1.67 μM=>final conc.”, “volume is 0.75 μM) in” for “volume is 1 μM) in”, “concentration of CDK2/CycE was adjusted” for “concentration of CDK9/CycT1 was adjusted”, “range of 130 ng/mL. The reaction” for “range of 1 μg/mL. The reaction”
as §2, with “TR-FRET” for “HTRF”
A general note: TR-FRET usually uses a lanthanide donor and a delayed reading to cut background.

Experimental findings from patent US9670161B2, “5-fluoro-N-(pyridin-2-yl)pyridin-2-amine derivatives containing a sulfone group” (BAYER PHARMA AKTIENGESELLSCHAFT, priority 2012, dated 2017) are described below.

Molecules are shown by their SMILES. pIC50: −log10 of the molar value.

CDK9/CycT1, sequence (P50750 whole entry): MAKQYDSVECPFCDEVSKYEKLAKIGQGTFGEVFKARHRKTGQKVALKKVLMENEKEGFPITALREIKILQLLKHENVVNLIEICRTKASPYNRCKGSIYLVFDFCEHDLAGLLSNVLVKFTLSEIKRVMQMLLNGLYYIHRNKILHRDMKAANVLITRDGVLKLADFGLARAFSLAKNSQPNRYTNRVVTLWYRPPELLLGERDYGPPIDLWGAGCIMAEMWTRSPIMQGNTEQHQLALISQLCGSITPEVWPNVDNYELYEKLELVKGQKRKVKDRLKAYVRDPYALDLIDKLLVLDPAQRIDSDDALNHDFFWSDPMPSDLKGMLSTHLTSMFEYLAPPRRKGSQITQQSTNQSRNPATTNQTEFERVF
CDK9/CycT1, sequence (O60563 whole entry partner): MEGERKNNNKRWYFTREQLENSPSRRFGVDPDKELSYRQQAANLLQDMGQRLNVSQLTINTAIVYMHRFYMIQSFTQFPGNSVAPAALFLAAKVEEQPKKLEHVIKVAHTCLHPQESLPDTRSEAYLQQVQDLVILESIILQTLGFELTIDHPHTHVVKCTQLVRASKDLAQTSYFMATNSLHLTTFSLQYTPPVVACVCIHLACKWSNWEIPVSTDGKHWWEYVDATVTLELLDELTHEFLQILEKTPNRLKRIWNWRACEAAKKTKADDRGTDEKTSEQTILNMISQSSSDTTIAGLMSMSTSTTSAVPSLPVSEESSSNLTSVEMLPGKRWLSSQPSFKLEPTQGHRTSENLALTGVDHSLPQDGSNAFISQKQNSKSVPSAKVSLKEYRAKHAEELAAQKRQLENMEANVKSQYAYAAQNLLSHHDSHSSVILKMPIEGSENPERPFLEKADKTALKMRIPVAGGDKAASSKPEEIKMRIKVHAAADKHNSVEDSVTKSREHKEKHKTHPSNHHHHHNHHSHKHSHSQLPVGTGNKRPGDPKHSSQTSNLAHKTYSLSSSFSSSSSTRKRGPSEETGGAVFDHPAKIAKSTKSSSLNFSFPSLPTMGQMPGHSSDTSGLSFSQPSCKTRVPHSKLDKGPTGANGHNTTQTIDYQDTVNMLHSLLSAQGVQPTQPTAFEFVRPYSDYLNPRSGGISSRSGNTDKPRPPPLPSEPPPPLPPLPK

Take `COc1cc(F)ccc1-c1cc(Nc2cc(CS(C)(=O)=O)ccn2)ncc1F` [Example 1, 5-Fluoro-4-(4-fluoro-2-methoxyphenyl)-N-{4-[(methylsulfonyl)methyl]pyridin-2-yl}pyridin-2-amine]: the pIC50 – broadly, the negative decadic logarithm of the IC50, by convention in mol/L – in assay [1] was 8.70; in assay [2], 6.77.

Take `COc1cc(F)ccc1-c1cc(Nc2cc(CS(C)(=O)=O)cc(C)n2)ncc1F` [Example 2, 5-Fluoro-4-(4-fluoro-2-methoxyphenyl)-N-{6-methyl-4-[(methylsulfonyl)methyl]pyridin-2-yl}pyridin-2-amine]: the pIC50 in assay [1] was 8.52; in assay [2], 7.15.

For the compound `COc1cc(F)ccc1-c1cc(Nc2cc(CS(C)(=O)=O)cc(F)n2)ncc1F` [Example 3, 5-Fluoro-4-(4-fluoro-2-methoxyphenyl)-N-{6-fluoro-4-[(methylsulfonyl)methyl]pyridin-2-yl}pyridin-2-amine], the pIC50 in assay [1] was 8.52; in assay [2], 7.19.

On to `COc1cc(F)ccc1-c1cc(Nc2cc(CS(C)(=O)=O)cc(C(F)(F)F)n2)ncc1F` [Example 4, 5-Fluoro-4-(4-fluoro-2-methoxyphenyl)-N-{4-[(methylsulfonyl)methyl]-6-(trifluoromethyl)pyridin-2-yl}pyridin-2-amine], for which the pIC50 was 8.40 in assay [1] and 7.28 in assay [2].

As to `COc1cc(F)ccc1-c1cc(Nc2cc(CS(C)(=O)=O)cc(C(F)F)n2)ncc1F` [Example 5, N-{6-(Difluoromethyl)-4-[(methylsulfonyl)methyl]pyridin-2-yl}-5-fluoro-4-(4-fluoro-2-methoxyphenyl)pyridin-2-amine], the pIC50 in assay [1] is 8.70; in assay [2], 8.15.
